# How the values were obtained:
# DU145 PC cells = assay: Cytotoxicity of FdUMP[10], laboratory studies and NCI 60 cell line screen; type: cell-based
# PC3 cells = assay: as above; type: cell-based, human
# LNCaP cells = assay: as above; type: cell-based, human
# colon cancer cells = assay: Uptake of FdUMP[10] multimer in other cancer cells; type: cell-based; conditions: other types of cancer cells (e.g. colon cancer)
# [1] = tested on: PC cells and normal prostatic epithelial cells; assay: Trypan blue exclusion assays; type: cell-based, human
# Procedure: The cytotoxicity of the candidate modified aptamers is also evaluated with regard to prostate cells that have been obtained from normal prostate tissue derived from radical prostatectomies. A procedure for establishing primary human epithelial cell cultures from the disease-free regions of the tissue (based on histology) has been described (Peehl et al., In Vitro Cell Dev. Biol. 22: 90 (1986); Peehl et al., In Vitro Cell Dev. Biol. 24: 530-536 (1988); Barreto et al., Cancer Epidemiol. Biomarkers Prey. 9: 265-270 (2000). The cultures are grown in MCDB 105 medium (Sigma, St. Louis, Mo.) that has been supplemented with growth factors and hormones as described previously (Peehl et al., In Vitro Cell Dev Biol 22: 90 (1986)). Trypan blue exclusion is used as a marker of viable cells. The data are analyzed to identify those candidate modified aptamers sequences that are highly efficient at killing PC cells that express xPSM, but that are not cytotoxic towards normal prostate cells. Candidate modified aptamers that display the greatest differential cytotoxicity are further developed as drugs for the treatment of human PC.
# (but not 5FU) is currently under investigation.
# prostate cancer cells [2] = tested on: prostate cancer cells
# [3] = tested on: DU145 prostate cancer cells
# [4] = tested on: PC3 prostate cancer cells
# prostate cancer cells [5] = tested on: prostate cancer cells; remark: listed apart in the source
# [6] = UV thermal melt (hyperchromicity); type: physicochemical
# Procedure: The structural characteristics of the parent aptamer and modified aptamers were determined using circular dichroism (CD) spectroscopy and ultraviolet (UV) hyperchromicity measurements. The data for the CD spectroscopy are shown in FIGS. 4A (modified aptamer) and 4B (parent aptamer). The circular dichroism curve acquired before thermal melting is in blue and that obtained post-melt is green. A maximum positive ellipticity is observed at 270 nm consistent with a highly folded structure, probably consisting of A-form helices. The circular dichroism spectra for the modified aptamers are indistinguishable from circular dichroism spectra for the parent aptamer. The UV thermal melt data is shown in FIGS. 4C (modified aptamer) and 4D (parent aptamer). The melting temperature for parent aptamer and the modified aptamers is about 55° C.
# [7] = target: T1, extracellular domain of PSMA (xPSM) (Homo sapiens, UniProt Q04609); conditions: cited from earlier work
# T1 construct: express the 706 amino acids comprising the extracellular domain of PSMA from Sf-9 (insect) cells using baculovirus; made in house; host or cells: Sf-9 insect cells, baculovirus (pBacGus3 vector); cDNA from LNCaP cells
# T1 sequence (Q04609 44-750 limits assumed): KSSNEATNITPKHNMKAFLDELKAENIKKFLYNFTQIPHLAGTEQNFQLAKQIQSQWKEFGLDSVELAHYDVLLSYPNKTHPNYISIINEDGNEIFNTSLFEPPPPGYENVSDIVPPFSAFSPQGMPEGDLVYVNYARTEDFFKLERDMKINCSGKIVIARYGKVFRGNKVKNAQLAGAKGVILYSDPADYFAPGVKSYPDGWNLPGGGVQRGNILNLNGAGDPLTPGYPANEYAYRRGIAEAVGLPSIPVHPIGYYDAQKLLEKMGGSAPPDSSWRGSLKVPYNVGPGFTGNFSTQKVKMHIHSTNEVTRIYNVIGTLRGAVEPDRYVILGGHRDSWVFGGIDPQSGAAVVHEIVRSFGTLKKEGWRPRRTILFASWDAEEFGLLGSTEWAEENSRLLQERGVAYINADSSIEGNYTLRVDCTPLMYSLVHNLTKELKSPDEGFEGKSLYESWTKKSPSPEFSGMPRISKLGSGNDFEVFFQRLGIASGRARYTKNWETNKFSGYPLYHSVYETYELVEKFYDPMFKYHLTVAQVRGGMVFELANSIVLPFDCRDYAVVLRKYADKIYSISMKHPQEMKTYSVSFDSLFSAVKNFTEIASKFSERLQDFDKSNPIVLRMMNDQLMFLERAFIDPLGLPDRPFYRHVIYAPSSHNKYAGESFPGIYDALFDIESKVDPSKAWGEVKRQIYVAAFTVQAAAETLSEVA
Substance,times more potent than 5FU (DU145 PC cells; DU145 PC cells),"GI50 (DU145 PC cells; DU145 cells, GI50 value from the NCI 60 cell line screen, read-out: IC50 (the source's name)) [nM]",sensitivity of PC3 cells (PC3 cells),times more potent than 5FU (PC3 cells; PC3 cells) [times],sensitivity of LNCaP cells (LNCaP cells),uptake of multimer relative to prostate cancer cells (colon cancer cells),differential sensitivity between PC cells and normal prostatic epithelial cells [1],cytotoxicity relative to 5FU or FdU (prostate cancer cells [2]),drug concentrations at which cytotoxic towards prostate cancer cells (prostate cancer cells [2]) [nM],"cytotoxicity relative to monomeric fluoropyrimidines (5FU, FdU, FdUMP) [3]","cytotoxicity relative to monomeric fluoropyrimidines (5FU, FdU, FdUMP) [4]",effect of phosphatase or nucleotidase inhibitor on cytotoxicity (prostate cancer cells [5]),uptake in multimeric form (prostate cancer cells [5]; prostate cancer cells),tolerability in vivo,stability of folded structure ([6]; 37° C.),melting temperature ([6]; UV thermal melt),binding affinity for xPSM [7]
FdUMP[10],"1,585 time",5.01,highly sensitive,631,highly sensitive,less efficient,large differential sensitivity,substantially more cytotoxic,10 to 100,substantially more cytotoxic,substantially more cytotoxic,Neither inhibitor substantially reduced the cytotoxicity,efficiently take up,very well-tolerated,–,–,–
"5′rGGGAGGACGAUGCGGAUCAGCCAUGUUUACGUCAC UCCUUGUCAAUCCUCAUCGGC-3′ (GGGAGGACGAUGCGGAUCAGCCAUGUUUACGUCACUCCUUGUCAAUCCUCAUCGGC; RNA, backbone not given here) [A10-3]",–,–,–,–,–,–,–,–,–,–,–,–,–,–,stable at 37 °C,about 55 °C,high affinity

# Source: patent publication US8940885B2, “Cytotoxic nucleotides for targeted therapeutics” (Wake Forest University Health Sciences, priority 2006, dated 2015)
